Results on one molecule are retold here after ChEMBL document CHEMBL4433252, “Bypassing lantibiotic resistance by an effective nisin derivative” (Bioorg Med Chem, 2019).

Assay [1] concerns Enterococcus faecalis. As to the kind of experiment: Antibacterial activity against Enterococcus faecalis ATCC 29212 assessed as reduction in cell viability incubated overnight. In kind it is functional.
Assay [2] relates to Staphylococcus aureus. As to the kind of experiment: Potency index, ratio of MIC for nisin to MIC for test compound for antibacterial activity against Staphylococcus aureus ATCC 29213 assessed as reduction in cell viability incubated overnight. In kind it is functional.
Assay [3] relates to Lactococcus lactis. Description: Induction of pore formation in Lactococcus lactis NZ9000 transfected with Streptococcus agalactiae COH1 NSR assessed as increase in florescence intensity at 30 nM measured after 100 secs by sytox green-based fluorescence assay. In kind it is functional, organism-based.
Assay [4] deals with Enterococcus faecalis. Description: Potency index, ratio of MIC for nisin to MIC for test compound for antibacterial activity against Enterococcus faecalis ATCC 29212 assessed as reduction in cell viability incubated overnight. In kind it is functional.
The test system of assay [5] is Lactococcus lactis. Description: Resistance index, ratio of IC50 for growth inhibition of Lactococcus lactis NZ9000 transfected with Streptococcus agalactiae COH1 NSR S236A mutant incubated for 5 hrs by spectrophotometry to IC50 for growth inhibition of Lactococcus lactis NZ9000 transfected with pNZ-Erm plasmid incubated for 5 hrs by spectrophotometry. In kind it is functional.

Assay [6] has as its system Lactococcus lactis. Description: Growth inhibition of Lactococcus lactis NZ9000 transfected with Streptococcus agalactiae COH1 NSR S236A mutant incubated for 5 hrs by spectrophotometry. In kind it is functional, organism-based. The following applies: NZ9000, 5 h.
In assay [7] the test system is Lactococcus lactis. Description: Growth inhibition of Lactococcus lactis NZ9000 transfected with Streptococcus agalactiae COH1 NSR incubated for 5 hrs by spectrophotometry. In kind it is functional, organism-based. Particulars: NZ9000, 5 h.
Assay [8] deals with Lactococcus lactis. Description: Resistance index, ratio of IC50 for growth inhibition of Lactococcus lactis NZ9000 transfected with Streptococcus agalactiae COH1 NSR incubated for 5 hrs by spectrophotometry to IC50 for growth inhibition of Lactococcus lactis NZ9000 transfected with pNZ-Erm plasmid incubated for 5 hrs by spectrophotometry. In kind it is functional.
The test system of assay [9] is Lactococcus lactis. As to the kind of experiment: Growth inhibition of Lactococcus lactis NZ9000 transfected with pNZ-Erm plasmid incubated for 5 hrs by spectrophotometry. In kind it is functional, organism-based. Particulars: NZ9000, 5 h.
Assay [10] has as its system Staphylococcus aureus. Description: Antibacterial activity against Staphylococcus aureus ATCC 29213 assessed as reduction in cell viability incubated overnight. In kind it is functional.

Structures are written as SMILES. Values after ≈ are worked out from the molar mass of the structure shown. Active and inactive are the calls of the source. The rule behind the calls is not given here.

A word on the MIC: it is the least concentration at which growth counts as inhibited. By IC50 is commonly meant the concentration at which inhibition is half-maximal. As to `C=C(NC(=O)[C@@H](NC(=O)[C@H](Cc1cnc[nH]1)NC(=O)[C@@H](NC(=O)[C@H](CO)NC(=O)[C@@H]1CCCN1C(=O)[C@H](Cc1cnc[nH]1)NC(=O)[C@@H]1CS[C@@H](C)[C@H](NC(=O)[C@H](CCCCN)NC(=O)[C@H](CCSC)NC(=O)[C@H](CC(N)=O)NC(=O)[C@@H]2CS[C@@H](C)[C@H](NC(=O)[C@H](CCCCN)NC(=O)[C@@H]3CS[C@@H](C)[C@H](NC(=O)[C@@H]4CSC[C@H](NC(=O)/C(=C/C)NC(=O)[C@@H](N)[C@@H](C)CC)C(=O)N[C@@H]([C@@H](C)CC)C(=O)NC(=C)C(=O)N[C@@H](CC(C)C)C(=O)N4)C(=O)N4CCC[C@H]4C(=O)NCC(=O)N3)C(=O)NCC(=O)N[C@@H](C)C(=O)N[C@@H](CC(C)C)C(=O)N[C@@H](CCSC)C(=O)NCC(=O)N2)C(=O)N[C@@H](C)C(=O)N[C@@H](CC)C(=O)N1)[C@@H](C)CC)C(C)C)C(=O)N[C@@H](CCCCN)C(=O)O`, the minimal inhibitory concentration (MIC) in the assay with Enterococcus faecalis [1] and in the assay on Staphylococcus aureus [10] was 10.6 µM (≈ 35.6 µg/mL) each time. Moreover, the Ratio in the assay with Staphylococcus aureus [2] and with Enterococcus faecalis [4] was 7.8 throughout. For the same molecule, the outcome with Lactococcus lactis [3] was Active. Further, the “Ratio IC50” value in the assay on Lactococcus lactis [5] and in the assay with Lactococcus lactis [8] was 3.5 each time. For the same molecule, the IC50 amounted to 24.1 nM with Lactococcus lactis [6], 22.5 nM in the assay on Lactococcus lactis [7] and 5.5 nM in the assay on Lactococcus lactis [9].
